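These data come from cells grown in 96-well plates and exposed to compound for 48 hours at five concentrations. TGI marks complete inhibition of growth.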
Tests used:
Test in all cases: inhibition of tumour cell growth, NCI panel, 48 h
HOP-92 NSCLC = tested on: HOP-92 NSCLC
MCF7 breast = tested on: MCF7 breast
IGROV1 ovarian = tested on: IGROV1 ovarian
OVCAR-3 ovarian = tested on: OVCAR-3 ovarian
RXF 393 renal = tested on: RXF 393 renal
MALME-3M melanoma = tested on: MALME-3M melanoma
SK-OV-3 ovarian = tested on: SK-OV-3 ovarian
MDA-N = tested on: MDA-N
OVCAR-8 ovarian = tested on: OVCAR-8 ovarian
SN12C renal = tested on: SN12C renal
HS 578T breast = tested on: HS 578T breast
TK-10 renal = tested on: TK-10 renal
K-562 leukemia = tested on: K-562 leukemia
T-47D breast = tested on: T-47D breast
PC-3 prostate = tested on: PC-3 prostate
SNB-19 CNS = tested on: SNB-19 CNS
M14 melanoma = tested on: M14 melanoma
U251 CNS = tested on: U251 CNS
A498 renal = tested on: A498 renal
HCC-2998 colon = tested on: HCC-2998 colon
786-0 renal = tested on: 786-0 renal
SK-MEL-2 melanoma = tested on: SK-MEL-2 melanoma
SF-295 CNS = tested on: SF-295 CNS
SK-MEL-5 melanoma = tested on: SK-MEL-5 melanoma
CAKI-1 renal = tested on: CAKI-1 renal
SF-539 CNS = tested on: SF-539 CNS
A549 NSCLC = tested on: A549 NSCLC
KM12 colon = tested on: KM12 colon
HCT-116 colon = tested on: HCT-116 colon
OVCAR-4 ovarian = tested on: OVCAR-4 ovarian
MDA-MB-435 = tested on: MDA-MB-435
HCT-15 colon = tested on: HCT-15 colon
COLO 205 colon = tested on: COLO 205 colon
HOP-62 NSCLC = tested on: HOP-62 NSCLC
NCI-H522 lung = tested on: NCI-H522 lung
SK-MEL-28 melanoma = tested on: SK-MEL-28 melanoma
SNB-75 CNS = tested on: SNB-75 CNS
BT-549 breast = tested on: BT-549 breast
UACC-257 melanoma = tested on: UACC-257 melanoma
DU-145 prostate = tested on: DU-145 prostate
UACC-62 melanoma = tested on: UACC-62 melanoma
SF-268 CNS = tested on: SF-268 CNS
NCI-H23 lung = tested on: NCI-H23 lung
MDA-MB-231 breast = tested on: MDA-MB-231 breast
ACHN renal = tested on: ACHN renal
EKVX NSCLC = tested on: EKVX NSCLC
RPMI-8226 leukemia = tested on: RPMI-8226 leukemia
NCI-H226 lung = tested on: NCI-H226 lung
SW-620 colon = tested on: SW-620 colon
HT29 colon = tested on: HT29 colon
NCI/ADR-RES ovarian = tested on: NCI/ADR-RES ovarian
UO-31 renal = tested on: UO-31 renal
NCI-H460 lung = tested on: NCI-H460 lung
OVCAR-5 ovarian = tested on: OVCAR-5 ovarian
MOLT-4 leukemia = tested on: MOLT-4 leukemia
SR leukemia = tested on: SR leukemia
LOX IMVI melanoma = tested on: LOX IMVI melanoma
CCRF-CEM leukemia = tested on: CCRF-CEM leukemia
HL-60(TB) leukemia = tested on: HL-60(TB) leukemia

Measured: TGI

OCCN(CO)CO
not listed: OVCAR-5 ovarian | MOLT-4 leukemia | SR leukemia | LOX IMVI melanoma | CCRF-CEM leukemia | HL-60(TB) leukemia
> 100 µM: all other assays above

COc1cccc(C23CCN(C)C(CC(O)C2)C3)c1OC (centres undefined)
not listed: RXF 393 renal | HCC-2998 colon | SNB-75 CNS | NCI-H460 lung
> 100 µM: all other assays above

Cc1ccc(-c2cc(-c3ccc(Cl)cc3)nc(/N=C3\C(=O)N(CN(C)C)c4ccccc43)n2)cc1
94.7 µM: UACC-257 melanoma
63.9 µM: RXF 393 renal
69.4 µM: NCI-H522 lung
43.9 µM: MDA-N
97.8 µM: DU-145 prostate
32.1 µM: MDA-MB-435
58.5 µM: LOX IMVI melanoma
33.5 µM: MOLT-4 leukemia
26.2 µM: HL-60(TB) leukemia
not listed: HCC-2998 colon | RPMI-8226 leukemia | SR leukemia
> 100 µM: all other assays above

Oc1ccccc1C=Nc1ccc(-c2nc3ccccc3s2)cc1
52.2 µM: HOP-62 NSCLC
99.1 µM: NCI-H226 lung
83.5 µM: NCI-H460 lung
52.4 µM: A498 renal
31.9 µM: SK-MEL-5 melanoma
85.2 µM: EKVX NSCLC
54.7 µM: NCI-H522 lung
66.3 µM: UACC-62 melanoma
73 µM: ACHN renal
88 µM: OVCAR-3 ovarian
99.3 µM: SNB-75 CNS
56.4 µM: HOP-92 NSCLC
71.4 µM: TK-10 renal
55.9 µM: SF-295 CNS
40.9 µM: COLO 205 colon
67.5 µM: UACC-257 melanoma
84.8 µM: T-47D breast
50.5 µM: SK-MEL-2 melanoma
45.4 µM: HCC-2998 colon
56.8 µM: PC-3 prostate
91.2 µM: HL-60(TB) leukemia
not listed: MCF7 breast | MDA-MB-231 breast
> 100 µM: all other assays above

Nc1nc(SCC(=O)c2ccc(Br)cc2)c2[nH]cnc2n1
86.5 µM: NCI-H522 lung
47.8 µM: CCRF-CEM leukemia
98.7 µM: T-47D breast
62.1 µM: HOP-92 NSCLC
56.8 µM: TK-10 renal
60.3 µM: SK-MEL-5 melanoma
73 µM: SNB-75 CNS
63.1 µM: HL-60(TB) leukemia
81.9 µM: HS 578T breast
46.8 µM: COLO 205 colon
93.6 µM: NCI/ADR-RES ovarian
50.8 µM: IGROV1 ovarian
not listed: HCC-2998 colon | SF-539 CNS | MOLT-4 leukemia
> 100 µM: all other assays above

Nc1ccccc1C(=O)N=Nc1c(O)[nH]c2ccccc12
73.8 µM: HS 578T breast
81 µM: SNB-75 CNS
not listed: HOP-92 NSCLC | SK-MEL-28 melanoma | RPMI-8226 leukemia | SW-620 colon | LOX IMVI melanoma | HL-60(TB) leukemia
> 100 µM: all other assays above

O=C(Cn1c2ccc(Br)cc2c2nc3ccccc3nc21)Nc1ccccc1
38.2 µM: A549 NSCLC
57.1 µM: T-47D breast
89.4 µM: SNB-75 CNS
34.2 µM: MDA-MB-231 breast
76.9 µM: HS 578T breast
66.8 µM: SW-620 colon
32.4 µM: HOP-92 NSCLC
45.1 µM: NCI/ADR-RES ovarian
82.7 µM: NCI-H226 lung
79 µM: MALME-3M melanoma
29.2 µM: LOX IMVI melanoma
28.7 µM: 786-0 renal
40.5 µM: NCI-H522 lung
86.9 µM: CAKI-1 renal
56.2 µM: IGROV1 ovarian
46.5 µM: PC-3 prostate
68.7 µM: RXF 393 renal
28.4 µM: OVCAR-8 ovarian
99.4 µM: OVCAR-4 ovarian
27.6 µM: HCT-116 colon
73.5 µM: U251 CNS
70.5 µM: HCT-15 colon
93.6 µM: NCI-H23 lung
not listed: MCF7 breast | SF-539 CNS | EKVX NSCLC | SR leukemia | HL-60(TB) leukemia
> 100 µM: all other assays above

From PubChem BioAssay (NCI)
